Assay results reported in patent US5198427A, “Natural intense sweeteners” (Research Corporation Technologies, Inc., priority 1990, dated 1993).
Where two headings read alike, the source gives them in different places.

Columns and labels:
[1] = Acute toxicity in mice, single oral dose; type: in vivo, male Swiss-Webster mice; settings: for Average body weight of test animals, Day 0 / Average body weight of test animals, Day 1 / Average body weight of test animals, Day 3 / Average body weight of test animals, Day 7 / Average body weight of test animals, Day 14: 1 g/kg oral intubation; for Average body weight of test animals, Day 0: day 0 (prior to administration); for t (body weight, test vs control), Day 0 / t (body weight, test vs control), Day 1 / t (body weight, test vs control), Day 3 / t (body weight, test vs control), Day 7 / t (body weight, test vs control), Day 14: 1 g/kg oral, 0.95 confidence
Procedure: The sweet isolates, abrusosides A-D, are each tested for acute toxicity in mice. Experiments are carried out with male Swiss-Webster mice (6-8 weeks old), that are housed in temperature-controlled rooms with a 12-hr light/dark cycle, and allowed free access to water and food. After acclimatization for three days, groups of 10 animals receive a single 1 g/kg body weight dose of either abrusoside A, B, C, or D by oral intubation. Test materials are suspended in 1% aqueous sodium carboxymethylcellulose. A control group treated with only 1% sodium caroboxymethylcellulose is also included in the experiment. In all experiments, no incidence of mortality occurred for up to 14 days after dosing. Animals are examined for body weight variations on days 0 (prior to administration), 1, 3, 7, and 14. Body weight variations between treated and control groups are analyzed by one-way analysis of variance using an appropriate computer program. It may be seen from these tables that no significant differences in body weight variation occurred between each of the four test compounds and the controls, when assessed for a fourteen day period following compound administration.

[2] = system: Salmonella typhimurium strain TM677; type: cell-based; settings: DMSO
Procedure: Salmonella typhimurium strain TM677, carrying the "R-factor" plasmid pKM101, is used for the assessment of mutagenic activity. Mutagenic assays are conducted on abrusosides A, B, C, and D, both in the absence and presence of a metabolic activating agent, obtained from a 9,000 × g supernatant fraction from the livers of […] rats. The following protocols are used in this procedure.
Male Sprague-Dawley rats (body weight 100-120 g) were housed in air-conditioned quarters, with a 12 hr/12 hr light-dark cycle, and are given food and water ad libitum. The rats (groups of 10) are given single intraperitoneal injections of Aroclor 1254 (400 mg/kg) in corn oil. Four days after the treatment with Aroclor 1254, the rats are sacrificed by decapitation. Their livers are immediately excised, rinsed several times with cold 0.14 M NaCl, minced, and homogenized with 3 volumes (v/w) of 50 mM Tris HCl, pH 5, containing 0.14 M KCl, using a glass homogenizing vessel and a motor-driven Teflon pestle. The homogenate is filtered through cheese-cloth, and centrifuged at 9,000 g for 20 minutes to yield an S-9 fraction. The isolation procedures described above are conducted at 0°-4° C., and the isolated S-9 fraction is stored in small aliquots in liquid nitrogen.
Duplicate 0.98-ml reaction mixtures containing 0.1 mg of NADP^+, 1.0 mg of glucose-6-phosphate, 0.8 units of glucose-6-phosphate dehydrogenase, 0.67 mg of MgCl2, the S-9 fraction, and approximately 7×10^6 bacteria in logarithmic phase, are prepared in minimal essential medium. When metabolic activation is not required, only bacteria and minimal essential medium are mixed.
After addition of each test substance dissolved in 20 ul of DMSO, the mixtures are slowly rotated at 37° C. for 2 hours. Each reaction mixture is then quenched by addition of 4 ml phosphate-buffered saline. The bacteria are recovered by centrifugation, resuspended, diluted as appropriate, and plated, in triplicate, in the presence or absence of 8-azaguanine. Plates are scored […] on plates containing 8-azaguanine divided by the average number of plates not containing azaguanine, after correcting for dilution factors. The latter value is used to define the percentage of bacteria surviving the treatment, relative to a control in which only an equivalent amount of solvent had been added.
The spontaneous mutant fraction for this assay is 7.4±5×10^-5 (n=145). A compound is said to cause significant mutation if the induced mutant fraction is greater than or equal to two times the spontaneous mutant fraction.

[3] = Sensory evaluation by human taste panel; settings: for Sweetness relative to a 2% aqueous solution of sucrose: ammonium salts, in water, human taste panel; for Sweetness relative to 2% sucrose: three-person panel, dilute ammonium hydroxide solution diluted with water
Procedure: Abrusoside A (4 mg) is dissolved in 0.033N ammonium hydroxide solution (0.2 ml), to which is added 1.8 ml of water to yield the equivalent of a 0.2 % w/v solution of abrusoside A. Aliquots (0.2 ml) of this solution are diluted with 0.4, 0.8, 1.3, and 1.8 ml water, respectively. The diluted solutions is tasted sequentially, in order to judge the intensity of sweetness equivalent to that of a 2% w/v aqueous sucrose solution. Similar procedures are used in the sensory evaluation of […], expect that the concentrations of the ammonium hydroxide solutions used are 0.05N for abrusosides B and C, and 0.025N for abrusoside D. These sensory experiments are performed by a small panel consisting of three persons.

[4] = cited from earlier work
[5] = 2.5 mg/ml, activating system none
[6] = 5.0 mg/ml, activating system none

Row | Molecule | Average body weight of test animals, Day 0 [1] | Average body weight of test animals, Day 1 [1] | Average body weight of test animals, Day 3 [1] | Average body weight of test animals, Day 7 [1] | Average body weight of test animals, Day 14 [1] | t (body weight, test vs control), Day 0 [1] | t (body weight, test vs control), Day 1 [1] | t (body weight, test vs control), Day 3 [1] | t (body weight, test vs control), Day 7 [1] | t (body weight, test vs control), Day 14 [1] | % Survival ([2]; 2.5 mg/ml, Aroclor S-9) | Mutant Fraction ([2]; 2.5 mg/ml, Aroclor S-9) | % Survival [2, 5] | Mutant Fraction [2, 5] | % Survival ([2]; 5.0 mg/ml, Aroclor S-9) | Mutant Fraction ([2]; 5.0 mg/ml, Aroclor S-9) | % Survival [2, 6] | Mutant Fraction [2, 6] | Sweetness relative to a 2% aqueous solution of sucrose [3] | Sweetness relative to 2% sucrose [3] | other results
1 | CC1=CC[C@@H]([C@@H](C)[C@H]2CC[C@@]3(C)[C@@H]4CC[C@H]5[C@](C)(C(=O)O)[C@@H](O[C@@H]6O[C@H](CO)[C@@H](O)[C@H](O)[C@H]6O[C@@H]6O[C@H](CO)[C@@H](O)[C@H](O)[C@H]6O)CC[C@@]56C[C@@]46CC[C@]23C)OC1=O [Abrusoside C] | 23.4 g | 23.8 g | 24.3 g | 25.3 g | 26.9 g | 0.282 | 0.371 | 0.302 | 0.129 | 0.930 | 100% | 7.7 × 10^5 | 100% | 8.1 × 10^5 | 100% | 6.7 × 10^5 | 100% | 7.6 × 10^5 | 50 x | 50 times | –
2 | COC(=O)[C@H]1O[C@@H](O[C@H]2[C@H](O[C@H]3CC[C@]45C[C@]46CC[C@]4(C)[C@@H]([C@H](C)[C@@H]7CC=C(C)C(=O)O7)CC[C@@]4(C)[C@@H]6CC[C@H]5[C@]3(C)C(=O)O)O[C@H](CO)[C@@H](O)[C@@H]2O)[C@H](O)[C@@H](O)[C@@H]1O [Abrusoside B] | 23.5 g | 23.7 g | 23.9 g | 25.0 g | 26.4 g | 0.432 | 0.330 | 0.458 | 0.576 | 0.282 | 100% | 7.2 × 10^5 | 100% | 8.7 × 10^5 | 100% | 8.2 × 10^5 | 100% | 7.3 × 10^5 | 100 x | 100 times | –
3 | CC1(C)[C@@H](O[C@H]2O[C@H](C(=O)O)[C@@H](O)[C@H](O)[C@H]2O[C@@H]2O[C@H](C(=O)O)[C@@H](O)[C@H](O)[C@H]2O)CC[C@]2(C)[C@H]3C(=O)C=C4[C@@H]5C[C@@](C)(C(=O)O)CC[C@]5(C)CC[C@@]4(C)[C@]3(C)CC[C@@H]12 [Glycyrrhizin] | – | – | – | – | – | – | – | – | – | – | – | – | – | – | – | – | – | – | – | – | Retention of sodium, chlorine and water ([4]; humans): can cause abnormal retention of sodium, chlorine and water in humans; Adrenocorticomimetic activity ([4]; mimics the effects of the adrenal cortex): known adrenocorticomimetic activity
4 | Abrusoside D | 24.1 g | 24.4 g | 24.9 g | 25.7 g | 27.0 g | 1.199 | 1.140 | 0.991 | 0.383 | 0.812 | 100% | 11.8 × 10^5 | 100% | 16.7 × 10^5 | 100% | 11.0 × 10^5 | 100% | 15.3 × 10^5 | 75 x | 75 times | Duration of lingering sweetness ([3]; 0.04% w/v): about 30 minutes
5 | CC1=CC[C@@H]([C@@H](C)[C@H]2CC[C@@]3(C)[C@@H]4CC[C@H]5[C@](C)(C(=O)O)[C@@H](O[C@@H]6O[C@H](CO)[C@@H](O)[C@H](O)[C@H]6O)CC[C@@]56C[C@@]46CC[C@]23C)OC1=O [Abrusoside A] | 23.4 g | 23.7 g | 24.4 g | 25.4 g | 26.1 g | 0.292 | 0.153 | 0.368 | 0.000 | 0.000 | 100% | 8.1 × 10^5 | 100% | 7.9 × 10^5 | 100% | 7.3 × 10^5 | 100% | 8.1 × 10^5 | 30 x | 30 times | –
